According to US11597708B2, “Inhibitors of heat shock factors and uses thereof” (HSF Pharmaceuticals SA, priority 2016, dated 2023):

Legend:
human cancer cell lines = experiment: Viability of human cancer cell lines (overall statements); type: cell-based; conditions: 96-hour exposure; sensitivity varied greatly; no effect of p53 status
Protocol: Cultures of HeLa cells were exposed for 96 hours to different concentrations of IHSF 001, 058 and 115, and viability was assessed using an Alamar Blue assay. It is noted that this standard assay examines attached cells only. This subject will be discussed in more detail below. […] The relative cytotoxicity of the compounds appears to parallel their respective activities as inhibitors of HSF1 function (inhibition of RLuc expression in Z74 cells). We next examined the viability of different human cancer cell lines subsequent to a 96-hour exposure to compound 115 (Table 3). HSF1 was reported as being required for optimal p21 expression and for p53-mediated cell cycle arrest in response to genotoxins. Logan, I. R. et al. (2009) Nucleic Acids Res. 37: 2962-2971. […] Cell lines of different p53 status were included in the experiments in order to find out whether sensitivity to IHSF 115 was related to p53 status. […] No effect of p53 status could be discovered. It is noted that a number of additional HSF inhibitors of the present disclosure were tested and found to effectively reduce the viability of human cancer cells.

[1] = biological target: T1, HSF1 occupancy of the hspa1a promoter (Homo sapiens, UniProt Q00613); experiment: Chromatin immunoprecipitation, HSF1 occupancy of hspa1a promoter in HeLa cells; type: cell-based; conditions: 12.5 μM for two hours, then heat-treated
T1 construct: functionally linked to an hsp70b promoter and therefore controlled by endogenous HSF1; endogenous in cells; host or cells: HeLa cells / HeLa-derived cell line Z74
Protocol: FIG. 3. (A) HeLa cell cultures were mock-treated (−) or exposed for 2 hours to the indicated concentrations of compounds 058 or 115 and then heat-treated (HS) at 43° C. for 30 min. Top panels: HSF1 DNA-binding activities in cell extracts were determined by EMSA. The panels show the major HSF1-HSE DNA probe complexes. Middle panels: HSF1 levels assayed by western blot (WB). GAPDH served as a loading control. Bottom panels: HSF1 homooligomerization. Aliquots of extracts were EGS-treated and then analyzed by anti-HSF1 WB. The positions of pre-stained molecular weight marker proteins (MW, in thousands) are indicated to the right. Asterisks indicate the positions of monomeric and trimeric HSF1, respectively. (B) Relative occupancy of the hspa1a promoter was assessed by chromatin immunoprecipitation assay of HeLa cell cultures mock-treated (−) or treated with compounds 058 or 115 at 12.5 μM concentrations for 2 hours and then heat-treated (HS) at 43° C. for 30 min. Chromatin fragments were immunoprecipitated using HSF1 antibodies or an F4/80 LR (control) antibody, and associated hspa1a promoter DNA was quantified by real-time PCR.
We also investigated whether the compounds were capable of interfering with HSF1 oligomerization. Aliquots of the extracts were subjected to cross-linking with EGS (ethylene glycolbis(succinimidylsuccinate)) and then re-analyzed by anti-HSF1 WB. […]

T1 sequence (Q00613 whole entry): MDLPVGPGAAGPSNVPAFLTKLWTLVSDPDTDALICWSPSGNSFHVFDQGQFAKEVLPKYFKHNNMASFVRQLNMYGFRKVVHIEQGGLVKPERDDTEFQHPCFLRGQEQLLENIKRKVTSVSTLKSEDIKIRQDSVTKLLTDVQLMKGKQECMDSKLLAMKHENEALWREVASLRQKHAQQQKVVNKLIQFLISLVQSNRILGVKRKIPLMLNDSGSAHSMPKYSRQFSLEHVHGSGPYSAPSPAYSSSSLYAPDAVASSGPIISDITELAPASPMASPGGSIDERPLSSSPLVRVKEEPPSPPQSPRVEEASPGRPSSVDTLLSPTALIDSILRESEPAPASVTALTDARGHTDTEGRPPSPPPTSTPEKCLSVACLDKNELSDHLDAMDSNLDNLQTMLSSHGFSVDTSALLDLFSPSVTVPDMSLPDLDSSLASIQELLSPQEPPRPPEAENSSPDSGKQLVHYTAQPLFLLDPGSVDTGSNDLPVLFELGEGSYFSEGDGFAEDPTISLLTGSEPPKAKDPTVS

## CN(C(=O)/C=C/C1=NCCCO1)c1ncc(-c2cccnc2)s1 [IHSF 115, (E)-3-(5,6-Dihydro-4H-[1,3]oxazin-2-yl)-N-methyl-N-(5-pyridin-3-yl-thiazol-2-yl)-acrylamide]
Human cancer cell lines
  viability of human cancer cell lines: reduced viability in all cell lines tested
[1]
  HSF1 occupancy of the hspa1a promoter (ChIP): not reduced substantially
